Measurements published in ChEMBL document CHEMBL2163320, “Benzofuranones as potential antinociceptive agents: structure-activity relationships” (2012).

Assays:
Mus musculus [1] = assay: Antinociceptive activity in Swiss mouse assessed as inhibition of acetic acid-induced abdominal constriction at 10 mg/kg administered 30 to 60 mins prior to acetic acid challenge measured over 20 mins by writhing test; format: functional, Abdomen
Mus musculus [2] = assay: Antinociceptive activity in Swiss mouse assessed as inhibition of acetic acid-induced abdominal constriction administered 30 to 60 mins prior to acetic acid challenge measured over 20 mins by writhing test; format: functional; conditions: Abdomen; for ED50: read-out: ID50 (the source's name)
Mus musculus [3] = assay: Antinociceptive activity in Swiss mouse assessed as inhibition of acetic acid-induced abdominal constriction at 30 mg/kg administered 30 to 60 mins prior to acetic acid challenge measured over 20 mins by writhing test; format: functional, Abdomen

SMILES | Imax (Mus musculus [1]) [%] | ED50 (Mus musculus [2]) [µmol/kg] | Imax (Mus musculus [3]) [%] | inhibition (Mus musculus [2])
COc1ccc(C(=O)CC2OC(=O)c3ccccc32)cc1OC (configuration not stated) | 49.4 |  |  | 
O=C(CC1OC(=O)c2ccccc21)c1ccc(Cl)c(Cl)c1 (configuration not stated) |  | 34.6 | 90.7 | 
O=C(CC1OC(=O)c2ccccc21)c1ccc(Cl)cc1 (configuration not stated) | 73.5 | 33.7 | 97.7 | Dose-dependent effect
